Assay results: patent US20230026856A1, “HETEROCYCLIC COMPOUNDS AND METHODS OF USE THEREOF” (SPARCBIO LLC, priority 2020, published 2023)

Tests used:
KRAS G12C protein = KRAS G12C protein (Homo sapiens, UniProt P01116, G12C); assay: Nucleotide exchange assay, Method III (TR-FRET, association of KRAS G12C with Raf-RBD, SOS1-mediated exchange); type: biochemical; conditions: overnight (18 hr) incubation with GDP-bound KRAS G12C
Experimental: Method III. Inhibition of SOS1-mediated exchange of GDP for GTP on the KRAS G12C protein was measured in a biochemical assay that monitors association of KRAS G12C protein with the Ras-binding domain of Raf (Raf-RBD), where the association is coupled to exchange of GDP to GTP on the KRAS G12C protein. The assay was performed at WuXi AppTec (Shanghai, China). Compounds were serially diluted in 3-fold dilutions to 11 concentrations and spotted into the wells of an assay plate in a total volume of 150 nL DMSO per well. A 2× enzyme mix was prepared by diluting GDP-bound, His-tagged KRAS G12C to 25 nM in assay buffer. 10 μL/well of 2× enzyme mix was added to all wells, and the plate was sealed and incubated overnight (18 hr) at 23° C. 4×SOS1/GDP and 4×SOS1/GTP were prepared in assay buffer. 5 μL/well of 4×SOS1/GDP mix was added to negative control wells, 5 μL/well of 4×SOS1/GTP mix was added to the remaining wells, and the plate was further incubated at 23° C. for 1 hr. Finally, FLAG-tagged Raf-RBD is added to the reaction mixture along with a pair of FRET donor- and acceptor-conjugated antibodies specific for the FLAG-tagged Raf-RBD and His-tagged KRAS G12C proteins. A 4× Raf-RBD/Tb-anti-FLAG/D2-anti-His mix was prepared in assay buffer, and 5 μL/well of the mix was added to all wells, followed by incubation at room temperature for 2 hr. The TR-FRET signals, which increase with association of KRAS G12C and Raf-RBD, were measured on a Perkin Elmer Envision 2104 plate reader, and data were analyzed by non-linear regression to obtain IC50 values for inhibition by compounds. Table 2 includes results of the assay of Method III. ‘+++’ indicates IC50 values ≤300 nM, ‘++’ indicates IC50 values between 300 nM-3 μM, and ‘+’ indicates IC50 values ≥3 μM.

NCI-H358 cells = assay: 3D cell proliferation assay (Cell Titer-Glo 3D); type: cell-based; conditions: Homo sapiens, NCI-H358, 168 h, NCI-H358, 3D (ultra-low attachment); 7 days
Experimental: NCI-H358 cells (ATCC® CRL-5807™) were plated in a 384-well Black/Clear Round Bottom Ultra-Low Attachment Microplate (Corning) in medium (RPMI-1640+10% FBS) at a density of 1000 cells in 50 μL per well, then incubated overnight at 37° C. and 5% CO2. Cells were treated with test compounds at 9 concentrations within a specified concentration range (e.g., 0.5 nM-10 μM) for generation of dose response curves. Test compounds were prepared by 1:3 serial dilution in DMSO from a specified starting concentration (e.g., 20 μM, 2 μM or 0.2 μM) and then added to wells of the assay plate in a total volume of 150 nL DMSO. The cells were further incubated at 37° C. and 5% CO2 for 7 days. Cell viability was assessed by adding 40 μL of Cell Titer-Glo® 3D reagent (Cat. No.: G9683, Promega) to each well and reading luminescence after mixing and incubation of the samples. The IC50 value of each test compound was calculated with XLFit curve fitting software.

MIA PaCa-2 = assay: Cell proliferation assay panel (Cell Titer-Glo), MIA PaCa-2; type: cell-based; conditions: Homo sapiens, MIA PaCa-2, 72 h
Experimental: Potency of compounds was determined in cell proliferation assays in a panel of cancer cell lines. Cells were seeded in 384-well plates (Corning, Cat. #3765) at specified densities in 40 μL of culture medium and incubated overnight at 37° C. in a 5% CO2 incubator (culture conditions). With a robotic dispenser, serially diluted test compounds were added in a volume of 20 nL DMSO to wells in the culture plate to achieve the final desired concentrations of test compounds, and the cells were further incubated in culture conditions for 72 hr. The assay was terminated by addition of 25 μL of Cell Titer-Glo reagent (Promega, Madison, Wis.) to each well. Contents were mixed, the plate was incubated for 10 min at room temperature and luminescence was measured. The IC50 value of each test compound was calculated with XLFit curve fitting software. Results are shown in Table 4. ‘+++’ indicates IC50 values ≤300 nM, ‘++’ indicates IC50 values between 300 nM-3 μM, and ‘+’ indicates IC50 values ≥3 μM.

Sequence of KRAS G12C protein (P01116 1-188 isoform P01116-2 G12C): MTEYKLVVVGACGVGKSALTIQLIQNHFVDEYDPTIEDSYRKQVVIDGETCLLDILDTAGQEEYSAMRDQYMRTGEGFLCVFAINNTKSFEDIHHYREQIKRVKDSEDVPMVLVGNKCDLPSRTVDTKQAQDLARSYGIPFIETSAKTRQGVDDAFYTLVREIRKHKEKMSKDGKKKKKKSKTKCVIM

| SMILES | IC50 (KRAS G12C protein) | IC50 (NCI-H358 cells) | IC50 (MIA PaCa-2) |
| --- | --- | --- | --- |
| C=CC(=O)N1CCN(c2c(C(=O)NC)c(=O)n(-c3c(C)ccnc3C(C)C)c3nc(-c4c(O)cccc4F)c(F)cc23)[C@@H](C)C1 (single isomer, unassigned) [76 (Isomer A)] | 300 to 3000 nM | 100 to 2000 nM | – |
| C=CC(=O)N1CCN(c2c(S(C)(=O)=O)c(=O)n(-c3c(C)ccnc3C(C)C)c3nc(-c4c(O)cccc4F)c(F)cc23)[C@@H](C)C1 (single isomer, unassigned) [131 (Isomer A)] | 300 to 3000 nM | 100 to 2000 nM | – |
| C=CC(=O)N1CCN(c2c(C(=O)NC)c(=O)n(-c3c(C)ccnc3C(C)C)c3nc(-c4c(O)cccc4F)c(F)cc23)C[C@H]1C (single isomer, unassigned) [82 (Isomer A)] | ≤ 300 nM | 100 to 2000 nM | – |
| C=CC(=O)N1CCN(c2c(S(C)(=O)=O)c(=O)n(-c3c(C)ccnc3C(C)C)c3nc(-c4cccc5sc(N)nc45)c(F)cc23)C[C@H]1C (single isomer, unassigned) [249 (Isomer A)] | ≤ 300 nM | – | 300 to 3000 nM |
| C=CC(=O)N1CCN(c2c(S(C)(=O)=O)c(=O)n(-c3c(C)ccnc3C(C)C)c3c(F)c(-c4c(O)cccc4F)c(Cl)cc23)CC1 (single isomer, unassigned) [176 (Isomer D), 4-(4-acryloylpiperazin-1-yl)-6-chloro-8-fluoro-7-(2-fluoro-6-hydroxyphenyl)-1-(2-isopropyl-4-methylpyridin-3-yl)-3-(methylsulfonyl)quinolin-2(1H)-one] | ≤ 300 nM | ≤ 100 nM | – |
| C=CC(=O)N1CCN(c2c(C(=O)NC)c(=O)n(-c3c(C)ccnc3C(C)C)c3nc(-c4c(O)cccc4F)c(F)cc23)C[C@@H]1CC#N (single isomer, unassigned) [80 (Isomer A)] | ≤ 300 nM | 100 to 2000 nM | – |
| C=CC(=O)N1CCN(c2c(C(=O)NC)c(=O)n(-c3c(C)ccnc3C(C)C)c3nc(-c4c(O)cccc4F)c(F)cc23)CC1 (single isomer, unassigned) [84 (Isomer A), 4-(4-acryloylpiperazin-1-yl)-6-fluoro-7-(2-fluoro-6-hydroxyphenyl)-1-(2-isopropyl-4-methylpyridin-3-yl)-N-methyl-2-oxo-1,2-dihydro-1,8-naphthyridine-3-carboxamide] | ≤ 300 nM | 100 to 2000 nM | – |
| C=CC(=O)N1CCN(c2c(S(C)(=O)=O)c(=O)n(-c3c(C)ccnc3C(C)C)c3nc(-c4c(O)cccc4F)c(F)cc23)C[C@@H]1CC#N (single isomer, unassigned) [135 (Isomer B)] | 300 to 3000 nM | 100 to 2000 nM | – |
| C=CC(=O)N1CCN(c2c(S(C)(=O)=O)c(=O)n(-c3c(C)ccnc3C(C)C)c3c(F)c(-c4cccc5sc(N)nc45)c(Cl)cc23)CC1 (single isomer, unassigned) [252 (Isomer D), 4-(4-acryloylpiperazin-1-yl)-7-(2-aminobenzo[d]thiazol-4-yl)-6-chloro-8-fluoro-1-(2-isopropyl-4-methylpyridin-3-yl)-3-(methylsulfonyl)quinolin-2(1H)-one] | ≤ 300 nM | ≤ 100 nM | – |
| C=CC(=O)N1CCC(n2c(=O)c(=O)n(-c3c(C)ccnc3C(C)C)c3nc(-c4c(O)cccc4F)c(F)cc32)C(C)C1 (single isomer, unassigned) [294 (Isomer F), 1-(1-acryloyl-3-methylpiperidin-4-yl)-7-fluoro-6-(2-fluoro-6-hydroxyphenyl)-4-(2-isopropyl-4-methylpyridin-3-yl)-1,4-dihydropyrido[2,3-b]pyrazine-2,3-dione] | 300 to 3000 nM | – | – |
| C=CC(=O)N1CCN(c2c(S(C)(=O)=O)c(=O)n(-c3c(C)ccnc3C(C)C)c3nc(-c4c(O)cccc4F)c(F)cc23)C[C@@H]1CC#N (single isomer, unassigned) [135 (Isomer A)] | ≥ 3000 nM | – | – |
| C=CC(=O)N1CCN(c2c(S(C)(=O)=O)c(=O)n(-c3c(C)ccnc3C(C)C)c3c(F)c(-c4cccc5sc(N)nc45)c(Cl)cc23)CC1 (single isomer, unassigned) [252 (Isomer A), 4-(4-acryloylpiperazin-1-yl)-7-(2-aminobenzo[d]thiazol-4-yl)-6-chloro-8-fluoro-1-(2-isopropyl-4-methylpyridin-3-yl)-3-(methylsulfonyl)quinolin-2(1H)-one] | ≤ 300 nM | – | – |
| C=CC(=O)N1CCN(c2c(C(=O)NC)c(=O)n(-c3c(C)ccnc3C(C)C)c3nc(-c4c(C)ccc5[nH]ncc45)c(F)cc23)C[C@H]1C (single isomer, unassigned) [114 (Isomer A)] | 300 to 3000 nM | – | – |
| C=CC(=O)N1CCN(c2c(S(C)(=O)=O)c(=O)n(-c3c(C)ccnc3C(C)C)c3c(F)c(-c4cccc5sc(N)nc45)c(Cl)cc23)CC1 (single isomer, unassigned) [252 (Isomer B), 4-(4-acryloylpiperazin-1-yl)-7-(2-aminobenzo[d]thiazol-4-yl)-6-chloro-8-fluoro-1-(2-isopropyl-4-methylpyridin-3-yl)-3-(methylsulfonyl)quinolin-2(1H)-one] | ≤ 300 nM | – | – |
| C=CC(=O)N1CCN(c2c(S(C)(=O)=O)c(=O)n(-c3c(C)ccnc3C(C)C)c3nc(-c4c(C)ccc5[nH]ncc45)c(F)cc23)CC1 (single isomer, unassigned) [124 (Isomer B), 4-(4-acryloylpiperazin-1-yl)-6-fluoro-1-(2-isopropyl-4-methylpyridin-3-yl)-7-(5-methyl-1H-indazol-4-yl)-3-(methylsulfonyl)-1,8-naphthyridin-2(1H)-one] | ≥ 3000 nM | – | – |
| C=CC(=O)N1CCN(c2c(S(C)(=O)=O)c(=O)n(-c3c(C)ccnc3C(C)C)c3c(F)c(-c4c(O)cccc4F)c(Cl)cc23)CC1 (single isomer, unassigned) [176 (Isomer B), 4-(4-acryloylpiperazin-1-yl)-6-chloro-8-fluoro-7-(2-fluoro-6-hydroxyphenyl)-1-(2-isopropyl-4-methylpyridin-3-yl)-3-(methylsulfonyl)quinolin-2(1H)-one] | ≤ 300 nM | – | – |
| C=CC(=O)N1CCC(c2c(C(=O)NC)c(=O)n(-c3c(C)ccnc3C(C)C)c3nc(-c4c(O)cccc4F)c(F)cc23)CC1 (single isomer, unassigned) [68 (Isomer B), 4-(1-acryloylpiperidin-4-yl)-6-fluoro-7-(2-fluoro-6-hydroxyphenyl)-1-(2-isopropyl-4-methylpyridin-3-yl)-N-methyl-2-oxo-1,2-dihydro-1,8-naphthyridine-3-carboxamide] | ≥ 3000 nM | – | – |
| C=CC(=O)N1CCN(c2c(S(C)(=O)=O)c(=O)n(-c3c(C)ccnc3C(C)C)c3c(F)c(-c4c(O)cccc4F)c(Cl)cc23)CC1 (single isomer, unassigned) [176 (Isomer A), 4-(4-acryloylpiperazin-1-yl)-6-chloro-8-fluoro-7-(2-fluoro-6-hydroxyphenyl)-1-(2-isopropyl-4-methylpyridin-3-yl)-3-(methylsulfonyl)quinolin-2(1H)-one] | ≥ 3000 nM | – | – |
| C=CC(=O)N1CCN(c2c(S(C)(=O)=O)c(=O)n(-c3c(C)ccnc3C(C)C)c3c(F)c(-c4c(C)ccc5[nH]ncc45)c(Cl)cc23)CC1 (single isomer, unassigned) [187 (Isomer D), 4-(4-acryloylpiperazin-1-yl)-6-chloro-8-fluoro-1-(2-isopropyl-4-methylpyridin-3-yl)-7-(5-methyl-1H-indazol-4-yl)-3-(methylsulfonyl)quinolin-2(1H)-one] | ≥ 3000 nM | – | – |
